In patent US4843089A, “Antimycotic agent” (Bayer Aktiengesellschaft, priority 1984, dated 1989):

How the values were obtained:
[1] = tested on: dermatophytes, molds and yeasts; test: Antimycotic in vitro activity, series dilution test (overall comparison with compound (B)); assay type: cell-based; conditions: in words; versus compound (B) known from the prior art
Experimental: The in vitro tests were carried out in a series dilution test using germ inocular of on average 5×10^3 to 10^4 germs/ml of substrate. The nutrient medium used was (a) for dermatophytes and molds. Sabourand's milieu d'epreuve (b) for yeasts: meat extract/glucose broth. The incubation temperature was 28° C. to 37° C. and the incubation period was 24 to 96 hours for yeasts and 96 hours for dermatophytes and molds.

Candida = test: Antimycotic in vivo activity (oral) on candidosis of mice; design: species or system mice (SPF-CF1); conditions: in words, 25-100 mg/kg, versus compounds (A) and (B)
Experimental: Mice of the SPF-CF1 type were infected intravenously with 1-2×10^6 logarithmically growing Candida cells suspended in physiological saline solution. The animals were treated orally with in each case 25-100 mg of the products/kg of body weight one hour before and seven hours after infection. Untreated animals died 3 to 6 days after infection. The survival rate on the 6th day after infection was about 5% in the untreated control animals.

[2] = tested on: Trichophyton von mentagrophytes; test: Antimicrobial in vivo activity (local), experimental trichophytosis in guinea pigs; conditions: 0.1% strength solution, 1x daily

Row | SMILES | antimycotic action in vitro compared with compound (B) [1] | action against candidosis of mice compared with compounds (A) and (B) (Candida) | action (local) on experimental trichophytosis, in words [2]
1 | CON=CC(C)(C)C(O)(CSc1ccc(Br)cc1)Cn1ccnc1 (stereo not shown) [Example 21] | better antimycotic action than compound (B) |  | 
2 | CCCON=CC(C)(C)C(O)(Cn1cncn1)c1ccc(Cl)cc1 (stereo not shown) [Example 38] | better antimycotic action than compound (B) | better action than compounds (A) and (B) | good action
3 | CCCC(O)(Cn1cncn1)C(C)(C)C=NOCc1ccc(Cl)cc1 (stereo not shown) [Example 41] | better antimycotic action than compound (B) |  | 
4 | CCCCC(O)(Cn1cncn1)C(C)(C)C=NOCc1ccc(Cl)cc1Cl (stereo not shown) [Example 47] | better antimycotic action than compound (B) |  | 
5 | CC(C)(C=NOCc1ccc(Cl)cc1Cl)C(O)(CCc1ccc(Cl)cc1)Cn1cncn1 (stereo not shown) [Example 29] | better antimycotic action than compound (B) |  | 
6 | CC(C)(C=O)C(O)(CCc1ccc(Cl)cc1)Cn1ccnc1 (stereo not shown) [Example 16] |  | better action than compounds (A) and (B) | 
7 | CCCCC(O)(Cn1cncn1)C(C)(C)C=NOCc1ccc(Cl)cc1 (stereo not shown) [Example 46] | better antimycotic action than compound (B) |  | 
8 | CON=CC(C)(C)C(O)(COc1ccc(Cl)cc1)Cn1cncn1 (stereo not shown) [Example 4] | better antimycotic action than compound (B) | better action than compounds (A) and (B) | 
9 | C=CCON=CC(C)(C)C(O)(CSc1ccc(Cl)cc1)Cn1cncn1 (stereo not shown) [Example 33] | better antimycotic action than compound (B) |  | 
10 | CCCCC(O)(Cn1cncn1)C(C)(C)C=NOCC1CCCCC1 (stereo not shown) [Example 45] | better antimycotic action than compound (B) |  | 
11 | CCCCON=CC(C)(C)C(O)(Cn1cncn1)c1ccc(Cl)cc1 (stereo not shown) [Example 40] |  | better action than compounds (A) and (B) | good action
12 | C=CCON=CC(C)(C)C(O)(Cn1cncn1)c1ccc(-c2ccccc2)cc1 (stereo not shown) [Example 36] | better antimycotic action than compound (B) |  | 
13 | CC(C)(C=O)C(O)(CCc1ccc(Cl)cc1)Cn1cncn1 (stereo not shown) [Example 7] | better antimycotic action than compound (B) |  | 
14 | CCC(O)(Cn1cncn1)C(C)(C)C=NOCc1ccc(Cl)cc1 (stereo not shown) [Example 43] | better antimycotic action than compound (B) |  | 
15 | CON=CC(C)(C)C(O)(CSc1ccc(Cl)cc1)Cn1cncn1 (stereo not shown) [Example 32] | better antimycotic action than compound (B) | better action than compounds (A) and (B) | good action
16 | CON=CC(C)(C)C(O)(COc1ccc(Cl)cc1Cl)Cn1cncn1 (stereo not shown) [Example 24] |  | better action than compounds (A) and (B) | 
17 | CON=CC(C)(C)C(O)(C#Cc1ccc(Cl)cc1)Cn1cncn1 (stereo not shown) [Example 10] | better antimycotic action than compound (B) | better action than compounds (A) and (B) | 

Row | SMILES | antimycotic action in vitro compared with compound (B) [1] | action against candidosis of mice compared with compounds (A) and (B) (Candida) | action (local) on experimental trichophytosis, in words [2]
18 | CON=CC(C)(C)C(O)(CCc1ccc(Cl)cc1)Cn1cncn1 (stereo not shown) [Example 22] | better antimycotic action than compound (B) |  | good action
19 | CC(C)(C=NOCC1CCCCC1)C(O)(Cn1cncn1)c1ccc(Cl)cc1 (stereo not shown) [Example 39] |  | better action than compounds (A) and (B) | 
20 | CON=CC(C)(C)C(O)(C#Cc1ccc(Cl)cc1Cl)Cn1cncn1 (stereo not shown) [Example 13] | better antimycotic action than compound (B) | better action than compounds (A) and (B) | 
21 | CON=CC(C)(C)C(O)(C#Cc1ccc(-c2ccccc2)cc1)Cn1cncn1 (stereo not shown) [Example 12] | better antimycotic action than compound (B) | better action than compounds (A) and (B) | 
22 | CON=CC(C)(C)C(O)(CSc1ccc(Cl)cc1)Cn1ccnc1 (stereo not shown) [Example 20] | better antimycotic action than compound (B) | better action than compounds (A) and (B) | good action
23 | CCCCON=CC(C)(C)C(O)(CCc1ccc(Cl)cc1)Cn1cncn1 (stereo not shown) [Example 23] | better antimycotic action than compound (B) | better action than compounds (A) and (B) | 
24 | CC(C)(C=NOCc1ccc(Cl)cc1)C(O)(COc1ccc(Cl)c(Cl)c1)Cn1cncn1 (stereo not shown) [Example 30] | better antimycotic action than compound (B) |  | 
25 | CC(C)(C=O)C(O)(C#Cc1ccc(-c2ccccc2)cc1)Cn1cncn1 (stereo not shown) [Example 11] | better antimycotic action than compound (B) |  | 
26 | CC(C)(C=O)C(O)(CSc1ccc(Br)cc1)Cn1cncn1 (stereo not shown) [Example 19] | better antimycotic action than compound (B) |  | 
27 | CON=CC(C)(C)C(O)(CSc1ccc(Br)cc1)Cn1cncn1 (stereo not shown) [Example 18] | better antimycotic action than compound (B) | better action than compounds (A) and (B) | good action
28 | CC(C)(C=O)C(O)(CCc1ccc(Cl)cc1Cl)Cn1cncn1 (stereo not shown) [Example 8] |  | better action than compounds (A) and (B) | 
29 | CC(C)(C=O)C(O)(COc1ccc(-c2ccccc2)cc1)Cn1cncn1 (stereo not shown) [Example 5] |  | better action than compounds (A) and (B) | 
30 | CON=CC(C)(C)C(O)(Cn1cncn1)c1ccc(Cl)cc1 (stereo not shown) [Example 37] | better antimycotic action than compound (B) | better action than compounds (A) and (B) | good action
31 | CC(C)(C=NOCc1ccc(Cl)cc1)C(O)(CCc1ccc(Cl)cc1)Cn1cncn1 (stereo not shown) [Example 28] | better antimycotic action than compound (B) | better action than compounds (A) and (B) | 
32 | CCCC(O)(Cn1cncn1)C(C)(C)C=NOCc1ccc(Cl)cc1Cl (stereo not shown) [Example 42] | better antimycotic action than compound (B) |  | 
33 | CON=CC(C)(C)C(O)(Cn1cncn1)c1ccc(-c2ccccc2)cc1 (stereo not shown) [Example 35] | better antimycotic action than compound (B) |  | 
34 | CON=CC(C)(C)C(O)(CSc1ccc(C(F)(F)F)c(Cl)c1)Cn1cncn1 (stereo not shown) [Example 17] | better antimycotic action than compound (B) |  | 
